The record followed here is patent US7498441B2, “Biaryltetrahydroisoquinoline piperidines as selective MCH receptor antagonists for the treatment of obesity and related disorders” (Schering Corporation, priority 2003, dated 2009).

T1 sequence (Q99705 whole entry): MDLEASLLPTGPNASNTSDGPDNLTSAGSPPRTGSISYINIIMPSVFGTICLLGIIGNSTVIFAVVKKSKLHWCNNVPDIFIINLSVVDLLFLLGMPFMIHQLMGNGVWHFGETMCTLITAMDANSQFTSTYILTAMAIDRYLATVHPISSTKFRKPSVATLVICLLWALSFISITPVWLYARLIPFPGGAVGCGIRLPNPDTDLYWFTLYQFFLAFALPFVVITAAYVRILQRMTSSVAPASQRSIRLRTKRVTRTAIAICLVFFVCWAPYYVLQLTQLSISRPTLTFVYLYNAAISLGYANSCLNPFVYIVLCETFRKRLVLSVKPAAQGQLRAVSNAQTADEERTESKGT

The first test has as its target T1, MCH receptor (Homo sapiens, UniProt Q99705).
T1 construct: expressed in transfected cells; host or cells: CHO cells
The test can be described thus: MCH Receptor Binding Assay ([125I]-MCH, SPA, membranes from CHO cells expressing the MCH receptor). The settings on record: MCH Receptor Activity (Preferred Compounds); dissociation constants; read-out: Ave KiMCH. The procedure: Membranes from CHO cells expressing the MCH receptor were prepared by lysing cells with 5 mM HEPES for 15 min at 4 C. Cell lysates were centrifuged ([…], 15 min) and the pellet was resuspended in 5 mM HEPES. For each 96-well plate (Microlite, Dynex Technologies), 1 mg of cell membranes were incubated with 10 mg of wheat germ agglutinin SPA beads (Amersham) for 5 min at 4 C in a volume of 10 ml of binding buffer (25 mM HEPES, 10 mM MGCl2, 10 mM NaCl, 5 mM MnCl2, 0.1% BSA). The membrane/bead mixture was centrifuged (1500×g, 3.5 min), the supernatant was aspirated, and the pellet was resuspended in 10 ml binding buffer. The centrifugation, aspiration and resuspension were then repeated. The membrane/bead mixture (100 μl) was then added to 96-well plates containing 50 μl of 500 pM [^125I]-MCH (NEN) and […] of the appropriate concentration of compound (4× the desired final concentration). Nonspecific binding was determined by including 1 μM MCH in the binding reaction. The binding reaction was incubated at room temperature for 2 h. Plates were then analyzed in a TOPCOUNT microplate scintillation counter (Packard). Data was analyzed and Ki values for the compounds of Formula 1 were determined using GraphPad Prim.
As to `N#Cc1cccc(-c2ccc3c(c2)CCN(CC(=O)Nc2cc(Cl)cc(Cl)c2)C3C2CCN(C3CCCC3)CC2)c1` (stereo not shown) [Example 1], the Ki was found to be 11.2 nM. Still for that read-out and setting: to `O=C(CN1CCc2cc(-c3ccncc3)ccc2C1C1CCN(C2CCCC2)CC1)Nc1cc(Cl)cc(Cl)c1` (stereo not shown) [Example 12] belongs 24 nM; to `O=C(CN1CCc2cc(-c3cccnc3)ccc2C1C1CCN(C2CCCC2)CC1)Nc1cc(Cl)cc(Cl)c1` (stereo not shown) [Example 16], 23 nM; to `CN1CCC(C2c3ccc(-c4cccc(C#N)c4)cc3CCN2CC(=O)Nc2cc(Cl)cc(Cl)c2)CC1` (stereo not shown) [Example 17], 22 nM.

As to `N#Cc1cccc(-c2ccc3c(c2)CCN(CC(=O)Nc2cc(Cl)cc(Cl)c2)C3C2CCN(Cc3ccccc3)CC2)c1` (stereo not shown) [Example 19], the Ki is 23 nM. Still for that read-out and setting: to `N#Cc1cccc(-c2ccc3c(c2)CCN(CC(=O)Nc2cc(Cl)cc(Cl)c2)C3C2CCNCC2)c1` (stereo not shown) [Example 20] belongs 26 nM. For the compound `N#Cc1cccc(-c2ccc3c(c2)CCN(CC(=O)Nc2cc(Cl)cc(Cl)c2)C3C2CCN(CCCCCO)CC2)c1` (stereo not shown) [Example 21], the Ki is 6.8 nM. `N#Cc1cccc(-c2ccc3c(c2)CCN(CC(=O)Nc2cc(Cl)cc(Cl)c2)C3C2CCN(C3CCCCCC3)CC2)c1` (stereo not shown) [Example 22]: the Ki turned out to be 10 nM. On the same count and under the same terms, to `N#Cc1cccc(-c2ccc3c(c2)CCN(CC(=O)Nc2cc(Cl)cc(Cl)c2)C3C2CCN(C3CCOCC3)CC2)c1` (stereo not shown) [Example 24] belongs 6.4 nM; to `N#Cc1cccc(-c2ccc3c(c2)CCN(CC(=O)Nc2cc(Cl)cc(Cl)c2)C3C2CCN(C3CCSC3)CC2)c1` (stereo not shown) [Example 25], 7 nM. On the same count and under the same terms, to `N#Cc1cccc(-c2ccc3c(c2)CCN(CC(=O)Nc2cc(Cl)cc(Cl)c2)C3C2CCN(Cc3ccoc3)CC2)c1` (stereo not shown) [Example 26] belongs 14 nM.

With `COc1ccccc1CN1CCC(C2c3ccc(-c4cccc(C#N)c4)cc3CCN2CC(=O)Nc2cc(Cl)cc(Cl)c2)CC1` (stereo not shown) [Example 27], the Ki was found to be 16 nM. Same read-out and setting: to `N#Cc1cccc(-c2ccc3c(c2)CCN(CC(=O)Nc2cc(Cl)cc(Cl)c2)C3C2CCN(CC3CC3)CC2)c1` (stereo not shown) [Example 28] belongs 9.3 nM. Same read-out and setting: to `N#Cc1cccc(-c2ccc3c(c2)CCN(CC(=O)Nc2cc(Cl)cc(Cl)c2)C3C2CCN(C3CCC3)CC2)c1` (stereo not shown) [Example 29] belongs 15 nM.

`N#Cc1cccc(-c2ccc3c(c2)CCN(CC(=O)Nc2cc(Cl)cc(Cl)c2)C3C2CCN(C3CCCCC3)CC2)c1` (stereo not shown) [Example 32]: the Ki was found to be 10 nM.

The same test, now with this note: MCH Receptor Antagonist Activity; rated A/B/C; read-out: Av. MCH Ki.
As for `O=C(CN1CCc2cc(-c3cccc(C(F)(F)F)c3)ccc2C1C1CCN(C2CCCC2)CC1)Nc1cc(Cl)cc(Cl)c1` (stereo not shown) [Example 1], the Ki was in the range of 100 to 500 nM. With `O=C(CN1CCc2cc(-c3ccccc3)ccc2C1C1CCN(C2CCCC2)CC1)Nc1cc(Cl)cc(Cl)c1` (stereo not shown) [Example 2], the Ki is 100 to 500 nM. Consider `N#Cc1ccc(-c2ccc3c(c2)CCN(CC(=O)Nc2cc(Cl)cc(Cl)c2)C3C2CCN(C3CCCC3)CC2)cc1` (stereo not shown) [Example 3], for which the Ki lay in the range of 100 to 500 nM.

Regarding `O=C(CN1CCc2cc(-c3cccc(F)c3)ccc2C1C1CCN(C2CCCC2)CC1)Nc1cc(Cl)cc(Cl)c1` (stereo not shown) [Example 4], the Ki fell in the range of 1 to 100 nM.

Consider `O=C(CN1CCc2cc(-c3cccc(Cl)c3)ccc2C1C1CCN(C2CCCC2)CC1)Nc1cc(Cl)cc(Cl)c1` (stereo not shown) [Example 5], for which the Ki lay within 1 to 100 nM. On the same count and under the same terms, to `COc1cccc(-c2ccc3c(c2)CCN(CC(=O)Nc2cc(Cl)cc(Cl)c2)C3C2CCN(C3CCCC3)CC2)c1` (stereo not shown) [Example 6] belongs 1 to 100 nM; to `O=C(CN1CCc2cc(-c3cccc(OC(F)(F)F)c3)ccc2C1C1CCN(C2CCCC2)CC1)Nc1cc(Cl)cc(Cl)c1` (stereo not shown) [Example 8], 1 to 100 nM; to `O=Cc1cccc(-c2ccc3c(c2)CCN(CC(=O)Nc2cc(Cl)cc(Cl)c2)C3C2CCN(C3CCCC3)CC2)c1` (stereo not shown) [Example 9], 1 to 100 nM. For `O=C(CN1CCc2cc(-c3cc(Cl)ccc3Cl)ccc2C1C1CCN(C2CCCC2)CC1)Nc1cc(Cl)cc(Cl)c1` (stereo not shown) [Example 10], the Ki fell in the range of 1 to 100 nM. For `O=C(CN1CCc2cc(-c3ccsc3)ccc2C1C1CCN(C2CCCC2)CC1)Nc1cc(Cl)cc(Cl)c1` (stereo not shown) [Example 13], the Ki fell in the range of 100 to 500 nM.

Consider `O=C(CN1CCc2cc(-c3cccc(-c4ncc[nH]4)c3)ccc2C1C1CCN(C2CCCC2)CC1)Nc1cc(Cl)cc(Cl)c1` (stereo not shown) [Example 14], for which the Ki was 1 to 100 nM. Same read-out and setting: to `O=C(CN1CCc2cc(-c3ccc[nH]3)ccc2C1C1CCN(C2CCCC2)CC1)Nc1cc(Cl)cc(Cl)c1` (stereo not shown) [Example 15] belongs 100 to 500 nM; to `O=C(CN1CCc2cc(-c3cccc(C(=O)O)c3)ccc2C1C1CCN(C2CCCC2)CC1)Nc1cc(Cl)cc(Cl)c1` (stereo not shown) [Example 18], over 500 nM; to `N#Cc1cccc(-c2ccc3c(c2)CCN(CC(=O)Nc2cc(Cl)cc(Cl)c2)C3C2CCN(Cc3ccccc3)CC2)c1` (stereo not shown) [Example 19], 1 to 100 nM. Still for that read-out and setting: to `O=C(CN1CCc2cc(-c3cccc4cccnc34)ccc2C1C1CCN(C2CCCC2)CC1)Nc1cc(Cl)cc(Cl)c1` (stereo not shown) [Example 20] belongs over 500 nM.

Take `CN1CCC(N2CCC(C3c4ccc(-c5cccc(C#N)c5)cc4CCN3CC(=O)Nc3cc(Cl)cc(Cl)c3)CC2)CC1` (stereo not shown) [Example 23]: the Ki was in the range of 1 to 100 nM.

`N#Cc1cccc(-c2ccc3c(c2)CCN(CC(=O)Nc2cc(Cl)cc(Cl)c2)C3C2CCN(CCCc3ccccc3)CC2)c1` (stereo not shown) [Example 30]: the Ki lay within 1 to 100 nM.

Turning to `CC(C)N1CCC(C2c3ccc(-c4cccc(C#N)c4)cc3CCN2CC(=O)Nc2cc(Cl)cc(Cl)c2)CC1` (stereo not shown) [Example 31], the Ki lay within 1 to 100 nM. With `N#Cc1cccc(-c2ccc3c(c2)CCN(CC(=O)Nc2cc(Cl)cc(Cl)c2)C3C2CCN(C(=O)C3CCCC3)CC2)c1` (stereo not shown) [Example 33], the Ki was over 500 nM.

With `CCN(CC)C(=O)N1CCC(C2c3ccc(-c4cccc(C#N)c4)cc3CCN2CC(=O)Nc2cc(Cl)cc(Cl)c2)CC1` (stereo not shown) [Example 34], the Ki was 100 to 500 nM. The same measure, in the same setting: to `CC(=O)N1CCC(C2c3ccc(-c4cccc(C#N)c4)cc3CCN2CC(=O)Nc2cc(Cl)cc(Cl)c2)CC1` (stereo not shown) [Example 35] belongs over 500 nM. On the same count and under the same terms, to `CS(=O)(=O)N1CCC(C2c3ccc(-c4cccc(C#N)c4)cc3CCN2CC(=O)Nc2cc(Cl)cc(Cl)c2)CC1` (stereo not shown) [Example 36] belongs over 500 nM; to `CN(C)S(=O)(=O)N1CCC(C2c3ccc(-c4cccc(C#N)c4)cc3CCN2CC(=O)Nc2cc(Cl)cc(Cl)c2)CC1` (stereo not shown) [Example 37], 100 to 500 nM. Still for that read-out and setting: to `N#Cc1cccc(-c2ccc3c(c2)CCN(CC(=O)Nc2cc(Cl)cc(Cl)c2)C3C2CCN(Cc3nccs3)CC2)c1` (stereo not shown) [Example 38] belongs 100 to 500 nM; to `CCS(=O)(=O)N1CCC(C2c3ccc(-c4cccc(C#N)c4)cc3CCN2CC(=O)Nc2cc(Cl)cc(Cl)c2)CC1` (stereo not shown) [Example 39], over 500 nM; to `N#Cc1cccc(-c2ccc3c(c2)CCN(C(=O)Nc2cc(Cl)cc(Cl)c2)C3C2CCN(Cc3ccccc3)CC2)c1` (stereo not shown) [Example 40], over 500 nM.

Take `N#Cc1cccc(-c2ccc3c(c2)CCN(C(=O)Nc2ccc(Cl)c(Cl)c2)C3C2CCN(Cc3ccccc3)CC2)c1` (stereo not shown) [Example 41]: the Ki was over 500 nM. On the same count and under the same terms, to `N#Cc1cccc(-c2ccc3c(c2)CCN(Cc2nc4ccccc4[nH]2)C3C2CCN(Cc3ccccc3)CC2)c1` (stereo not shown) [Example 42] belongs 100 to 500 nM; to `N#Cc1cccc(-c2ccc3c(c2)CCN(Cc2nc4cc(Cl)c(Cl)cc4[nH]2)C3C2CCN(Cc3ccccc3)CC2)c1` (stereo not shown) [Example 43], 1 to 100 nM; to `CN1CCC(C2c3ccc(-c4cccc(C#N)c4)cc3CCN2Cc2nc3cc(Cl)c(Cl)cc3[nH]2)CC1` (stereo not shown) [Example 44], 100 to 500 nM.

With `N#Cc1cccc(-c2ccc3c(c2)CCN(Cc2nc4cc(F)c(Cl)cc4[nH]2)C3C2CCN(Cc3ccccc3)CC2)c1` (stereo not shown) [Example 45], the Ki lay within 1 to 100 nM.
